Experimental findings from patent publication US20230026696A1, “TRPV4 RECEPTOR LIGANDS” (UNIVERSITY OF UTAH RESEARCH FOUNDATION, priority 2019, published 2023) are described below.

Each structure is given as a SMILES string.

Data set [1] deals with intraocular pressure (IOP). Nature of the data set: In vivo tonometric IOP assay in microbead mouse model of ocular hypertension. To be noted: FIG. 2 right panel; P<0.01 / P<0.001, two-way ANOVA. The procedure: FIG. 1 is a graph showing the effect that two concentrations of topical compound 11 (0.01% and 0.1%), 0.5% timolol, and control PBS had on IOP in the microbead (MB) mouse model of ocular hypertension (N=3 separate experiments, with 7-10 mice per experimental cohort). Error bars=±S.E.M. Ocular hypertension in the mouse model of primary open angle glaucoma (POAG) was induced with intracameral injection of polystyrene microbeads. Antagonist stock solutions (10 mM) were prepared in DMSO, the final concentrations were made in PBS diluted to <0.0001% DMSO.
FIG. 2 is a bar chart showing the cumulative data for pre-IOP elevation cohorts of mouse eyes (N≥3 separate experiments, with 7-10 mice per experimental cohort). Left panel: the IOP data are plotted as % of the control value of the timolol-treated eye cohort. Middle panel: MB injection elevated IOP in all experimental cohorts.
A tonometric assay was used to measured IOP changes in mice models of ocular hypertension over a period of weeks following topical application of the compounds.
To prepare the mice models of ocular hypertension, mice were anesthetized with an intraperitoneal (IP) injection of ketamine/xylazine (90 mg/10 mg/kg of body weight). Eye drops of 0.5% proparacaine hydrochloride with 1% tropicamide ophthalmic solution (Bausch & Lomb) were applied to numb and dilate the eyes of the mice. IOP was elevated in the ipsilateral eye by injecting 2 μl of polystyrene microbeads (7.8 μm FluoSpheres; Bangs Laboratories) with a Hamilton syringe into the anterior chamber over 60 seconds. The contralateral eye was injected with phosphate buffered saline (PBS).
A rebound tonometer was used to measure IOP at 1, 2, 6 and 10 hours post-injection after topical administration of Compounds 11 and 52 and timolol, a known medication for treatment of IOP associated with ocular hypertension and glaucoma. The IOP was determined from the means of 10 to 20 readings, following the protocol described in Ryskamp et al., Sci Rep 6:30583, 2016. […]

For another data set, the target named is T1, human TRPA1 (Homo sapiens, UniProt O75762).
T1 construct: expressed in transfected cells
T1 sequence (O75762 whole entry): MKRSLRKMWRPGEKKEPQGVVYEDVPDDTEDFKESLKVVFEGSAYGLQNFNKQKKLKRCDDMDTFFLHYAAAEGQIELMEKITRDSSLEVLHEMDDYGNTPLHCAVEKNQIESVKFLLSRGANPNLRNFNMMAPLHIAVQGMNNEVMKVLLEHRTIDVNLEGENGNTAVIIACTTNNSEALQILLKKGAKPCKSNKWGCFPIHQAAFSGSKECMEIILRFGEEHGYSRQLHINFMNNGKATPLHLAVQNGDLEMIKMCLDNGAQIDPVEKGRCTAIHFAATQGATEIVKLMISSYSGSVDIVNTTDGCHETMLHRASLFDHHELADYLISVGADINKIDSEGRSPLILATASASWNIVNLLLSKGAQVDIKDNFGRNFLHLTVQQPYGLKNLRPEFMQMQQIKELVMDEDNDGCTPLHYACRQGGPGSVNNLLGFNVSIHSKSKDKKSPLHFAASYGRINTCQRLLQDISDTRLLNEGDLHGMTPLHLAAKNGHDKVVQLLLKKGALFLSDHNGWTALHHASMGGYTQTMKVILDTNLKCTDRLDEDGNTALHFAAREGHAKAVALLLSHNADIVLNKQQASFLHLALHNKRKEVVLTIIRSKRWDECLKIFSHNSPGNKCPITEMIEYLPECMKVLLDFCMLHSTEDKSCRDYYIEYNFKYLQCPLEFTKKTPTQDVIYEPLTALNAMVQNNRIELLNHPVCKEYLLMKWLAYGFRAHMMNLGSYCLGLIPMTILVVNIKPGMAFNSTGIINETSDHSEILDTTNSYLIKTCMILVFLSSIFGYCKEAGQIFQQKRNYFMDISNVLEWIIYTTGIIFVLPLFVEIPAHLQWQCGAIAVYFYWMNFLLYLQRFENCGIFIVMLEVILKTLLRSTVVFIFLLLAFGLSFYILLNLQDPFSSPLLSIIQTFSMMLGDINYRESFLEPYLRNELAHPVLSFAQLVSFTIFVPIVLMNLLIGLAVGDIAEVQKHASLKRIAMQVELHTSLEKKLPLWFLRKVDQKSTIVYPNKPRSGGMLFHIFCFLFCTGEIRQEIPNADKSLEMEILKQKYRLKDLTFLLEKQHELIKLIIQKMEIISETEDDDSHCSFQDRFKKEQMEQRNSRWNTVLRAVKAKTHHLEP
Nature of the data set: Selectivity Ca2+ flux assay, TRPA1 stably over-expressed in HEK-293 cells. The following applies: agonist 2,4-ditert butylphenol (50 μM). It is filed as cell-based. The procedure: To determine selectivity of the various test compounds for TRPV4, select compounds with activity in the TRPV4 fluorometric cell-based Ca^2+ flux assays were also tested for inhibition of human TRPA1 stably over-expressed in HEK-293 cells, TRPM8 stably over-expressed in HEK-293 cells, TRPV3 stably over-expressed in HEK-293 cells, and TRPV1 stably overexpressed in human lung epithelial (BEAS-2B) cells. The assays were conducted substantially as described above for HEK-293 cells that stably overexpress TRPV4, although for TRPV1, the BEAS-2B cells were maintained in LHC-9 media containing Geneticin (300 μg/mL) and were loaded with Fluo-4AM at room temperature. The agonist for TRPA1 was 2,4-ditert butylphenol (50 μM), for TRPM8 was icilin (50 μM), for TRPV3 was carvacrol (300 μM), and for TRPV1 was nonivamide (5 μM). All other aspects of the assay described above were the same.

The test system of data set [2] is intraocular pressure (IOP). Description: In vivo IOP assay in dog model of ocular hypertension (ADAMTS10 Beagles). How it is done: Homozygous Beagels with autosomal recessive missense mutation in the ADAMTS10 gene develop significant IOP elevations due to decreased outflow facility for aqueous humor, resulting in open angle glaucoma that manifests as optic nerve head cupping and optic neuropathy.
8 drops of Compound 52 (200 mM in hydroxypropyl methylcellulose solution, stock dissolved in DMSO) were administered to the Beagels at 7 AM for 1.5 hours. Control eyes received the vehicle (hydroxypropyl methylcellulose eyedrop with proper dilution of DMSO). IOP was measured by tonometry at 9:00 AM (6 readings per event, averaged) in dogs under topical anesthesia (N=5 OAG, N=5 non-symptomatic dogs). General ophthalmic examinations were performed by slit lamp biomicroscopy (Kowa SL-17 Portable Slit Lamp; Kowa Company, Ltd.) and indirect ophthalmoscopy (Keeler All Pupil II headset; Keeler Instruments; Pan Retinal 2.2D condensing lens; Volk Optical) to detect potential treatment-related adverse effects.

Turning to `N#Cc1ccc(OCC2(CO)CN(S(=O)(=O)c3ccc(Cl)cc3Cl)C2)cc1F` [Compound 11, 4-((1-((2,4-Dichlorophenyl)sulfonyl)-3-(hydroxymethyl)azetidin-3-yl)methoxy)-2-fluorobenzonitrile], the “IOP levels in MB-treated eyes, topical application” value in data set [1] is given as “significantly lowered IOP levels”. Also, the concentration for half-maximal inhibition (IC50) at human TRPA1 came out at 52 µM.
In the case of `Cl.N#Cc1ccc(OCC2(N)CN(S(=O)(=O)c3ccc(Cl)cc3Cl)C2)cc1F` [Compound 52, 4-((3-Amino-1-((2,4-dichlorophenyl)sulfonyl)azetidin-3-yl)methoxy)-2-fluorobenzonitrile hydrochloride salt], in data set [1], the “IOP levels in MB-treated eyes, topical application” value was “significantly lowered IOP levels”. Further, the “average IOP after topical application” value in data set [2] (ocular hypertensive dogs, mean baseline IOP 45.5 mm Hg, 8 drops, 200 mM in hydroxypropyl methylcellulose) came to 36.6 mm Hg. Besides, the tolerability in dogs entry in data set [2] (topical, N=10) is recorded as “well-tolerated”. Besides, the “signs of ocular discomfort or conjunctival hyperemia” value in data set [2] (topical, N=10, slit lamp and ophthalmoscopy) is given as “no observable signs of ocular discomfort or conjunctival hyperemia”. On human TRPA1, this molecule displayed an IC50 of 89.6 µM.
